Experiment [1] deals with GM1 production in Jurkat cells. The experiment can be described thus: cells. It is filed as cell-based. Conditions: Homo sapiens, Jurkat, 72 h.
For experiment [2], the target named is T1, glucosylceramide synthase (GCS) (Homo sapiens, UniProt Q16739).
T1 construct: The obtained supernatant was used; host or cells: A549 cells (lysate supernatant after sonication)
T1 sequence (Q16739 1-394): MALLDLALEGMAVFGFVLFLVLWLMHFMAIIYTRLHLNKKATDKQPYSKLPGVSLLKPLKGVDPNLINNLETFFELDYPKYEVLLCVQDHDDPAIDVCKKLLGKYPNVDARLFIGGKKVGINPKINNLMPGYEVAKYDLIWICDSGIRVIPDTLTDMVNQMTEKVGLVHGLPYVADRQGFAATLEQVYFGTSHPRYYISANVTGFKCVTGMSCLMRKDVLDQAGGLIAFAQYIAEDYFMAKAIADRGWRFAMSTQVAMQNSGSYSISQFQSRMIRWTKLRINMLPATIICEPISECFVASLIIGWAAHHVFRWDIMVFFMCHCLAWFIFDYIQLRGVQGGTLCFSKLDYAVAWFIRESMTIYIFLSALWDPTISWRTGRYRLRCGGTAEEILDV
The experiment can be described thus: GCS enzyme inhibition assay (A549 cell lysate, NBD C6-ceramide, HPLC fluorescence). Format: biochemical. Conditions: inhibitory activity against GCS, 37° C., 90 minutes. The essentials: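 Percent GCS activity was derived from the GlcCer share of Cer plus GlcCer areas, scaled from ibiglustat (0%) to DMSO (100%). Enzyme came from sonicated A549 lysate in 50 mM HEPES pH 7.3; 90 min incubation at 37° C, chloroform/methanol stop and extraction.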

For 28 compounds, IC50 results are on record in US12673944B2, “Compounds having inhibitory activity against glucosylceramide synthase or pharmaceutically acceptable salt thereof, processes for preparing the same, and pharmaceutical compositions comprising the same” (YUHAN CORPORATION, priority 2019, dated 2026).

As a reminder, the IC50 is the midpoint of a concentration-inhibition curve. Lower therefore signals higher potency.

On to `COc1ccc(-c2cc3c(cc2F)C(NC(=O)O[C@@H]2CN4CCC2CC4)C(C)(C)CO3)cc1` (stereo partly drawn) [Example 336, (S)-quinuclidin-3-yl (6-fluoro-7-(4-methoxyphenyl)-3,3-dimethylchroman-4-yl)carbamate], for which the IC50 in experiment [1] was 3.5 nM; in experiment [2] it was 0.27 nM.
As for `CCOc1ccc(-c2cc3c(cc2F)C(NC(=O)O[C@@H]2CN4CCC2CC4)C(C)(C)CO3)cc1` (stereo partly drawn) [Example 337, (S)-quinuclidin-3-yl (7-(4-ethoxyphenyl)-6-fluoro-3,3-dimethylchroman-4-yl)carbamate], the values for the IC50 in experiment [1] and in experiment [2] were 1.2 nM and 0.23 nM, respectively.
As for `CC1(C)COc2cc(-c3ccsc3)c(F)cc2C1NC(=O)O[C@@H]1CN2CCC1CC2` (stereo partly drawn) [Example 338, (S)-quinuclidin-3-yl (6-fluoro-3,3-dimethyl-7-(thiophen-3-yl)chroman-4-yl)carbamate], the IC50 in experiment [1] came out at 3.3 nM; in experiment [2], 0.19 nM.
For the compound `CC(C)c1cccc(-c2cc3c(cc2F)C(NC(=O)O[C@@H]2CN4CCC2CC4)C(C)(C)CO3)c1` (stereo partly drawn) [Example 339, (S)-quinuclidin-3-yl (6-fluoro-7-(3-isopropylphenyl)-3,3-dimethylchroman-4-yl)carbamate], the figures for the IC50 in experiment [1] and in experiment [2] were 0.2 nM and 0.61 nM, respectively.
Consider `COc1ccc(Cl)c(-c2cc3c(cc2F)C(NC(=O)O[C@@H]2CN4CCC2CC4)C(C)(C)CO3)c1` (stereo partly drawn) [Example 340, (S)-quinuclidin-3-yl (7-(2-chloro-5-methoxyphenyl)-6-fluoro-3,3-dimethylchroman-4-yl)carbamate], for which the IC50 in experiment [1] is 2.4 nM; in experiment [2], 0.48 nM.
For the compound `COc1ccc(-c2cc3c(cc2F)C(NC(=O)O[C@@H]2CN4CCC2CC4)C(C)(C)CO3)c(F)c1` (stereo partly drawn) [Example 341, (S)-quinuclidin-3-yl (6-fluoro-7-(2-fluoro-4-methoxyphenyl)-3,3-dimethylchroman-4-yl)carbamate], the IC50 in experiment [1] came to 4.1 nM; in experiment [2], 0.17 nM.
`COc1ccc(-c2cc3c(cc2F)C(NC(=O)O[C@@H]2CN4CCC2CC4)C(C)(C)CO3)c(C)c1` (stereo partly drawn) [Example 342, (S)-quinuclidin-3-yl (6-fluoro-7-(4-methoxy-2-methylphenyl)-3,3-dimethylchroman-4-yl)carbamate]: the IC50 in experiment [1] stood at 3.5 nM; in experiment [2], 0.45 nM.
`CCCCc1ccc(-c2cc3c(cc2F)C(NC(=O)O[C@@H]2CN4CCC2CC4)C(C)(C)CO3)cc1` (stereo partly drawn) [Example 343, (S)-quinuclidin-3-yl (7-(4-butylphenyl)-6-fluoro-3,3-dimethylchroman-4-yl)carbamate]: the results for the half-inhibitory concentration (IC50) in experiment [1] and in experiment [2] were 0.1 nM and 0.12 nM, respectively.
With `CC(C)Oc1ccc(-c2cc3c(cc2F)C(NC(=O)O[C@@H]2CN4CCC2CC4)C(C)(C)CO3)cc1Cl` (stereo partly drawn) [Example 344, (S)-quinuclidin-3-yl (7-(3-chloro-4-isopropoxyphenyl)-6-fluoro-3,3-dimethylchroman-4-yl)carbamate], the IC50 in experiment [1] came to 7.3 nM; in experiment [2], 0.58 nM.
Take `CC(C)(C)c1ccc(-c2cc3c(cc2F)C(NC(=O)O[C@@H]2CN4CCC2CC4)C(C)(C)CO3)cc1` (stereo partly drawn) [Example 345, (S)-quinuclidin-3-yl (7-(4-(tert-butyl)phenyl)-6-fluoro-3,3-dimethylchroman-4-yl)carbamate]: the IC50 in experiment [1] came out at 1.6 nM; in experiment [2] it was 0.37 nM.
As for `COc1c(C)cc(-c2cc3c(cc2F)C(NC(=O)O[C@@H]2CN4CCC2CC4)C(C)(C)CO3)cc1C` (stereo partly drawn) [Example 346, (S)-quinuclidin-3-yl (6-fluoro-7-(4-methoxy-3,5-dimethylphenyl)-3,3-dimethylchroman-4-yl)carbamate], the 50% inhibitory concentration (IC50) in experiment [1] was 9.5 nM; in experiment [2], 1.18 nM.
For `CC(C)COc1ccc(-c2cc3c(cc2F)C(NC(=O)O[C@@H]2CN4CCC2CC4)C(C)(C)CO3)cc1` (stereo partly drawn) [Example 347, (S)-quinuclidin-3-yl (6-fluoro-7-(4-isobutoxyphenyl)-3,3-dimethylchroman-4-yl)carbamate] the same measures were 0.02 nM and 0.23 nM.
With `CC(C)Oc1ccc(-c2cc3c(cc2F)C(NC(=O)O[C@@H]2CN4CCC2CC4)C(C)(C)CO3)cn1` (stereo partly drawn) [Example 348, (S)-quinuclidin-3-yl (6-fluoro-7-(6-isopropoxypyridin-3-yl)-3,3-dimethylchroman-4-yl)carbamate], the IC50 in experiment [1] turned out to be 0.5 nM; in experiment [2], 0.24 nM.
As for `COc1cc2c(cc1-c1cccc(F)c1)OCC(C)(C)C2NC(=O)O[C@@H]1CN2CCC1CC2` (stereo partly drawn) [Example 349, (S)-quinuclidin-3-yl (7-(3-fluorophenyl)-6-methoxy-3,3-dimethylchroman-4-yl)carbamate], the values for the IC50 in experiment [1] and in experiment [2] were 3.2 nM and 0.32 nM, respectively.
Turning to `COc1cc2c(cc1-c1ccc(F)cc1)OCC(C)(C)C2NC(=O)O[C@@H]1CN2CCC1CC2` (stereo partly drawn) [Example 350, (S)-quinuclidin-3-yl (7-(4-fluorophenyl)-6-methoxy-3,3-dimethylchroman-4-yl)carbamate], the results for the IC50 in experiment [1] and in experiment [2] were 7.5 nM and 0.47 nM, respectively.
For `COc1cc2c(cc1-c1cccc(Cl)c1)OCC(C)(C)C2NC(=O)O[C@@H]1CN2CCC1CC2` (stereo partly drawn) [Example 351, (S)-quinuclidin-3-yl (7-(3-chlorophenyl)-6-methoxy-3,3-dimethylchroman-4-yl)carbamate], in that order: 1.7 nM and 0.45 nM.
Turning to `CCc1cccc(-c2cc3c(cc2OC)C(NC(=O)O[C@@H]2CN4CCC2CC4)C(C)(C)CO3)c1` (stereo partly drawn) [Example 352, (S)-quinuclidin-3-yl (7-(3-ethylphenyl)-6-methoxy-3,3-dimethylchroman-4-yl)carbamate], the half-maximal inhibitory concentration (IC50) in experiment [1] worked out at 2 nM; in experiment [2], 0.38 nM.
As to `CCc1ccc(-c2cc3c(cc2OC)C(NC(=O)O[C@@H]2CN4CCC2CC4)C(C)(C)CO3)cc1` (stereo partly drawn) [Example 353, (S)-quinuclidin-3-yl (7-(4-ethylphenyl)-6-methoxy-3,3-dimethylchroman-4-yl)carbamate], the IC50 in experiment [1] stood at 2.3 nM; in experiment [2], 0.33 nM.
Consider `COc1cccc(-c2cc3c(cc2OC)C(NC(=O)O[C@@H]2CN4CCC2CC4)C(C)(C)CO3)c1` (stereo partly drawn) [Example 354, (S)-quinuclidin-3-yl (6-methoxy-7-(3-methoxyphenyl)-3,3-dimethylchroman-4-yl)carbamate], for which the half-inhibitory concentration (IC50) in experiment [1] was 3.1 nM; in experiment [2] it was 0.63 nM.
As for `COc1ccc(-c2cc3c(cc2OC)C(NC(=O)O[C@@H]2CN4CCC2CC4)C(C)(C)CO3)cc1` (stereo partly drawn) [Example 355, (S)-quinuclidin-3-yl (6-methoxy-7-(4-methoxyphenyl)-3,3-dimethylchroman-4-yl)carbamate], the IC50 in experiment [1] was 5.8 nM; in experiment [2] it was 0.58 nM.
Turning to `CCOc1ccc(-c2cc3c(cc2OC)C(NC(=O)O[C@@H]2CN4CCC2CC4)C(C)(C)CO3)cc1` (stereo partly drawn) [Example 356, (S)-quinuclidin-3-yl (7-(4-ethoxyphenyl)-6-methoxy-3,3-dimethylchroman-4-yl)carbamate], the IC50 came out at 3.4 nM in experiment [1] and 0.48 nM in experiment [2].
For `COc1cc2c(cc1-c1ccsc1)OCC(C)(C)C2NC(=O)O[C@@H]1CN2CCC1CC2` (stereo partly drawn) [Example 357, (S)-quinuclidin-3-yl (6-methoxy-3,3-dimethyl-7-(thiophen-3-yl)chroman-4-yl)carbamate] the same measures were 4 nM and 0.45 nM.
Regarding `COc1cc2c(cc1-c1cccc(C(C)C)c1)OCC(C)(C)C2NC(=O)O[C@@H]1CN2CCC1CC2` (stereo partly drawn) [Example 358, (S)-quinuclidin-3-yl (7-(3-isopropylphenyl)-6-methoxy-3,3-dimethylchroman-4-yl)carbamate], the 50% inhibitory concentration (IC50) in experiment [1] was found to be 2 nM; in experiment [2] it was 0.61 nM.
Take `COc1ccc(Cl)c(-c2cc3c(cc2OC)C(NC(=O)O[C@@H]2CN4CCC2CC4)C(C)(C)CO3)c1` (stereo partly drawn) [Example 359, (S)-quinuclidin-3-yl (7-(2-chloro-5-methoxyphenyl)-6-methoxy-3,3-dimethylchroman-4-yl)carbamate]: the figures for the IC50 in experiment [1] and in experiment [2] were 2.4 nM and 0.62 nM, respectively.
Consider `COc1ccc(-c2cc3c(cc2OC)C(NC(=O)O[C@@H]2CN4CCC2CC4)C(C)(C)CO3)c(F)c1` (stereo partly drawn) [Example 360, (S)-quinuclidin-3-yl (7-(2-fluoro-4-methoxyphenyl)-6-methoxy-3,3-dimethylchroman-4-yl)carbamate], for which the figures for the IC50 in experiment [1] and in experiment [2] were 10 nM and 0.55 nM, respectively.
Regarding `COc1ccc(-c2cc3c(cc2OC)C(NC(=O)O[C@@H]2CN4CCC2CC4)C(C)(C)CO3)c(C)c1` (stereo partly drawn) [Example 361, (S)-quinuclidin-3-yl (6-methoxy-7-(4-methoxy-2-methylphenyl)-3,3-dimethylchroman-4-yl)carbamate], the results for the half-inhibitory concentration (IC50) in experiment [1] and in experiment [2] were 8.5 nM and 0.99 nM, respectively.
In the case of `CCCCc1ccc(-c2cc3c(cc2OC)C(NC(=O)O[C@@H]2CN4CCC2CC4)C(C)(C)CO3)cc1` (stereo partly drawn) [Example 362, (S)-quinuclidin-3-yl (7-(4-butylphenyl)-6-methoxy-3,3-dimethylchroman-4-yl)carbamate], the IC50 came out at 0.7 nM in experiment [1] and 0.11 nM in experiment [2].
On to `COc1cc2c(cc1-c1ccc(OC(C)C)c(Cl)c1)OCC(C)(C)C2NC(=O)O[C@@H]1CN2CCC1CC2` (stereo partly drawn) [Example 363, (S)-quinuclidin-3-yl (7-(3-chloro-4-isopropoxyphenyl)-6-methoxy-3,3-dimethylchroman-4-yl)carbamate], for which the IC50 in experiment [1] is 8.7 nM; in experiment [2], 0.75 nM.
